Assay results reported in US20250034173A1, “PYRIDO[4,3-D]PYRIMIDINE COMPOUNDS” (PFIZER INC., priority 2023, published 2025).

Experiments:
KRAS G12V = KRAS G12V (Homo sapiens (Human), UniProt P01116, G12V); assay: SPR binding affinity and kinetics, GTPγS-loaded KRAS G12V; settings: GTPγS loaded protein, geomean
Excerpt: (§1) No additional regeneration was used.
(§2) Compound dissociation was monitored for at least 3600 seconds. […] No additional regeneration was used.
(§3) The adequateness of the fit was judged by c2 values and the randomness of residue distribution.

KRAS G12D = KRAS G12D (Homo sapiens (Human), UniProt P01116, G12D); assay: SPR binding affinity and kinetics, GTPγS-loaded KRAS G12D; settings: GTPγS loaded protein, geomean
Excerpt: as §1, §2, §3

[1] = tested on: SW620 (colorectal cancer cell line); assay: KRAS Cell Titer Glo (CTG) cell proliferation assay, SW620; assay type: cell-based; settings: Homo sapiens, SW-620, 168 h; SW620 cells, 7-day CTG, geomean IC50
Excerpt: (§4) The CellTiter-Glo® (CTG) Luminescent Cell Viability Assay is a homogeneous method of determining the number of viable cells in culture based on quantitation of the ATP present, an indicator of metabolically active cells. The CTG is designed for use with multi-well formats, making it ideal for automated high-throughput screening (HTS), cell proliferation and cytotoxicity assays. The homogeneous assay procedure involves adding the single reagent (CellTiter-Glo® Reagent) directly to cells cultured in serum-supplemented medium. Cell washing, removal of medium and multiple pipetting steps are not required. The system detects as few as 15 cells per well in a 384-well format in 10 minutes after adding reagent and mixing.
(§5) Cells are grown in humidified 5% CO2 incubator at 37° C. using the culture conditions outlined below. All cell culture media reagents were purchased from Gibco. Cell lines purchased from ATCC: H358 (non-small cell lung cancer cell line), SW620 (colorectal cancer cell line), PANC08.13 (RPM11640+10% FBS+10 units/mL Insulin, pancreatic cancer cell line). Test and control compounds are dispensed as nanoliter drops according to desired final concentrations in 0.1% DMSO using Echo Acoustic Dispenser onto 384 assay plates (Corning, Cat #3764) prior to cell seeding. Cells were seeded in 40 μL volume per well at the following cell densities (cells per well): H358 (300), SW620 (750), PANC 08.13 (600). Cells are incubated in the presence of compound for 7-days. Viability is determined on Day 7 using CellTiter-Glo® (CTG) Luminescent Cell Viability Assay (Promega). CTG is added to a […] per well and incubated at room temperature for 15 minutes before luminescence is captured using an EnVision Reader with LUM384 US protocol. Data is analyzed using Activity Base to determine compound response and will be represented either as a percent effect (PCTEFF) or percent control (PCTOCTL) as described: Zero percent effect control (ZPE) (Negative control)—100% DMSO. Hundred percent effect (HPE) (Positive control)—1 uM Trametinib (GSK1120212, MEK inhibitor) (4 nl of 10 mM and 36 nl of DMSO per well). The following equations/nomenclature are used (% Effect; PCTEFF) and (% of Control; PCTOCTL): PCTEFF: 100*(Raw_Data_Value−HPE/ZPE−HPE), PCTOCTL: 100*Raw_Data_Value/User_Defined_Array), where the User_Defined_Array is either summarized HPE or ZPE.
(§6) Cells with “nd” indicate compound not tested in that particular assay at time of writing. It is to be understood that the geomean IC50 data may change slightly over time with increasing repeat data (ie: increasing n #).

[2] = tested on: PANC08.13 (pancreatic cancer cell line); assay: KRAS Cell Titer Glo (CTG) cell proliferation assay, PANC08.13; assay type: cell-based; settings: Homo sapiens, PANC-08-13, 168 h; PANC08.13 cells, 7-day CTG, geomean IC50
Excerpt: as §4, §5, §6

KRAS G12C = KRAS G12C (Homo sapiens (Human), UniProt P01116, G12C); assay: SPR binding affinity and kinetics, GTPγS-loaded KRAS G12C; settings: GTPγS loaded protein, geomean
Excerpt: as §1, §2, §3

KRAS Wild Type = KRAS Wild Type (Homo sapiens (Human), UniProt P01116); assay: SPR binding affinity and kinetics, GTPγS-loaded KRAS Wild Type; settings: GTPγS loaded protein, geomean
Excerpt: as §1, §2, §3

[3] = tested on: H358 (non-small cell lung cancer cell line); assay: KRAS Cell Titer Glo (CTG) cell proliferation assay, H358; assay type: cell-based; settings: Homo sapiens, NCI-H358, 168 h; H358 cells, 7-day CTG, geomean IC50
Excerpt: as §4, §5, §6

Chain of KRAS Wild Type (P01116 other isoform, or with tags, fused parts or gaps): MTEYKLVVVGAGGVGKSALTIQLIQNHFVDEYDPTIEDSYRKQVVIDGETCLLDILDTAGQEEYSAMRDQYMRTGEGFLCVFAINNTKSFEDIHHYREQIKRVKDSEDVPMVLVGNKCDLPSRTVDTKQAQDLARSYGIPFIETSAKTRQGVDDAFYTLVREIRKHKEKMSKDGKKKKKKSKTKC
Chain of KRAS G12C (P01116 other isoform, or with tags, fused parts or gaps G12C): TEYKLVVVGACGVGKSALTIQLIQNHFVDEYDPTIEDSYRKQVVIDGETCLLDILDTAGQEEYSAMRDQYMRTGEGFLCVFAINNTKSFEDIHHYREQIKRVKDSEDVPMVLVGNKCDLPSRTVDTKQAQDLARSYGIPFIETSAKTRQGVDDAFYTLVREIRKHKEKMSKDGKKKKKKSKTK
Chain of KRAS G12D (P01116 other isoform, or with tags, fused parts or gaps G12D): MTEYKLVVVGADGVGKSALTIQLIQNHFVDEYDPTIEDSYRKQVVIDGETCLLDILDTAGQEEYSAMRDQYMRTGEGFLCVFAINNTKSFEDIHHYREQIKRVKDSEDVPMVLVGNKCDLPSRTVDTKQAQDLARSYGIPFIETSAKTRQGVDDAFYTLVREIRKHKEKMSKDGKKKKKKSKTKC
Chain of KRAS G12V (P01116 other isoform, or with tags, fused parts or gaps G12V): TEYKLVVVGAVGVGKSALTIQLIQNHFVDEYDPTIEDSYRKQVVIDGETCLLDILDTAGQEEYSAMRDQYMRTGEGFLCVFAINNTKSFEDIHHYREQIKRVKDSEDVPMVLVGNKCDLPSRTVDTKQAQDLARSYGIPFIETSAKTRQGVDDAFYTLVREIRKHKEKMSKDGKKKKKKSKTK

Kd (KRAS G12V) [nM] | Kd (KRAS G12D) [nM] | IC50 [1] [nM] | IC50 [2] [nM] | Kd (KRAS G12C) [nM] | Kd (KRAS Wild Type) [nM] | IC50 [3] [nM] | Compound
7 | 5 | 30 | 13 | 9 | 8 | 80 | C=C1CN2CC(F)C[C@@]2(COc2nc3c4c(nc(-c5c(C6CC6)c(Cl)cc6[nH]ncc56)c(F)c4n2)OC[C@@H]2COCCCN32)C1 (stereo partly drawn) [Example 14, (8aS)-5-(6-chloro-5-cyclopropyl-1H-indazol-4-yl)-4-fluoro-2-{[(2R,7aR)-2-fluoro-6-methylidenetetrahydro-1H-pyrrolizin-7a(5H)-yl]methoxy}-8a,9,12,13-tetrahydro-8H,11H-7,10-dioxa-1,3,6,13a-tetraazanaphtho[1,8-ab]heptalene]
6 | 4 | 60 | 13 | 7 | 6 | 52 | Fc1c(-c2c(C3CC3)c(Cl)cc3[nH]ncc23)nc2c3c(nc(OC[C@@]45CCCN4CC(=C4CC4)C5)nc13)N1CCCOC[C@H]1CO2 [Example 40, (8aS)-5-(6-chloro-5-cyclopropyl-1H-indazol-4-yl)-2-{[(7aS)-2-cyclopropylidenetetrahydro-1H-pyrrolizin-7a(5H)-yl]methoxy}-4-fluoro-8a,9,12,13-tetrahydro-8H,11H-7,10-dioxa-1,3,6,13a-tetraazanaphtho[1,8-ab]heptalene]
105 | 141 | 294 | 48 | 176 | 117 | 263 | C=C1CN2CCC[C@@]2(COc2nc3c4c(nc(-c5c(Cl)c(C)cc6[nH]ncc56)c(F)c4n2)OC[C@@H]2COCCCN32)C1 [Example 8]
6 | 6 | 103 | 18 | 6 | 8 | 58 | C=C1CN2CCC[C@@]2(COc2nc3c4c(nc(-c5c(CC)c(Cl)cc6[nH]ncc56)c(F)c4n2)OC[C@@H]2COCCCN32)C1 [Example 33, (8aS)-5-(6-chloro-5-ethyl-1H-indazol-4-yl)-4-fluoro-2-{[(7aS)-2-methylidenetetrahydro-1H-pyrrolizin-7a(5H)-yl]methoxy}-8a,9,12,13-tetrahydro-8H,11H-7,10-dioxa-1,3,6,13a-tetraazanaphtho[1,8-ab]heptalene]
32 | 24 | 233 | 44 | 33 | 68 | 288 | Fc1c(-c2c(C3CC3)c(Cl)cc3[nH]ncc23)nc2c3c(nc(OC[C@@]45CCCN4CC(=C4CCOCC4)C5)nc13)N1CCCOC[C@H]1CO2 [Example 42, (8aS)-5-(6-chloro-5-cyclopropyl-1H-indazol-4-yl)-4-fluoro-2-{[(7aS)-2-(oxan-4-ylidene)tetrahydro-1H-pyrrolizin-7a(5H)-yl]methoxy}-8a,9,12,13-tetrahydro-8H,11H-7,10-dioxa-1,3,6,13a-tetraazanaphtho[1,8-ab]heptalene]
36 | 19 | 1420 | 161 | 39 | 46 | 768 | C=C1CN2CCC[C@@]2(COc2nc3c4c(nc(-c5c6c(cc7[nH]ncc57)CCC[C@@H]6C)c(F)c4n2)OC[C@@H]2COCCCN32)C1 [Example 32, (8aS)-4-fluoro-2-{[(7aS)-2-methylidenetetrahydro-1H-pyrrolizin-7a(5H)-yl]methoxy}-5-[(5S)-5-methyl-5,6,7,8-tetrahydro-1H-benzo[f]indazol-4-yl]-8a,9,12,13-tetrahydro-8H,11H-7,10-dioxa-1,3,6,13a-tetraazanaphtho[1,8-ab]heptalene]
5 | 6 | 115 | 11 | 7 | 10 | 54 | C=C1CN2CCC[C@@]2(COc2nc3c4c(nc(-c5c([C@H]6C[C@H]6C)c(Cl)cc6[nH]ncc56)c(F)c4n2)OC[C@@H]2COCCCN32)C1 (single isomer, unassigned) [Example 31, (8aS)-5-{6-chloro-5-[(1S*,2R*)-2-methylcyclopropyl]-1H-indazol-4-yl}-4-fluoro-2-{[(7aS)-2-methylidenetetrahydro-1H-pyrrolizin-7a(5H)-yl]methoxy}-8a,9,12,13-tetrahydro-8H,11H-7,10-dioxa-1,3,6,13a-tetraazanaphtho[1,8-ab]heptalene]
4 | 2 | 18 | 2 | 3 | 4 | 8 | C=C1CN2CCC[C@@]2(COc2nc3c4c(nc(-c5c(C6CC6)c(Cl)cc6[nH]ncc56)c(F)c4n2)OC[C@@H]2COCC[C@H](C)N32)C1 [Example 38, (8aS,13S)-5-(6-chloro-5-cyclopropyl-1H-indazol-4-yl)-4-fluoro-13-methyl-2-{[(7aS)-2-methylidenetetrahydro-1H-pyrrolizin-7a(5H)-yl]methoxy}-8a,9,12,13-tetrahydro-8H,11H-7,10-dioxa-1,3,6,13a-tetraazanaphtho[1,8-ab]heptalene]
4 | 2 | 102 | 4 | 3 | 4 | 51 | C=C1CN2CCC[C@@]2(COc2nc3c4c(nc(-c5c([C@@H]6C[C@@H]6C)c(Cl)cc6[nH]ncc56)c(F)c4n2)OC[C@@H]2COCCCN32)C1 (single isomer, unassigned) [Example 30, (8aS)-5-{6-chloro-5-[(1R*,2S*)-2-methylcyclopropyl]-1H-indazol-4-yl}-4-fluoro-2-{[(7aS)-2-methylidenetetrahydro-1H-pyrrolizin-7a(5H)-yl]methoxy}-8a,9,12,13-tetrahydro-8H,11H-7,10-dioxa-1,3,6,13a-tetraazanaphtho[1,8-ab]heptalene]
3 | 2 | 94 | 125 | 3 | 3 | 43 | OC/C=C1\CN2CCC[C@@]2(COc2nc3c4c(nc(-c5c(C6CC6)c(Cl)cc6[nH]ncc56)c(F)c4n2)OC[C@@H]2COCCCN32)C1 [Example 44, (2Z)-2-[(7aS)-7a-({[(8aS)-5-(6-chloro-5-cyclopropyl-1H-indazol-4-yl)-4-fluoro-8a,9,12,13-tetrahydro-8H,11H-7,10-dioxa-1,3,6,13a-tetraazanaphtho[1,8-ab]heptalen-2-yl]oxy}methyl)tetrahydro-1H-pyrrolizin-2(3H)-ylidene]ethan-1-ol]
24 | 28 | 139 | 22 | 15 | 34 | 173 | C=C1CN2CCC[C@@]2(COc2nc3c4c(nc(-c5c(C)c(Cl)cc6[nH]ncc56)c(F)c4n2)OC[C@@H]2COCCCN32)C1 [Example 7, (8aS)-5-(6-chloro-5-methyl-1H-indazol-4-yl)-4-fluoro-2-{[(7aS)-2-methylidenetetrahydro-1H-pyrrolizin-7a(5H)-yl]methoxy}-8a,9,12,13-tetrahydro-8H,11H-7,10-dioxa-1,3,6,13a-tetraazanaphtho[1,8-ab]heptalene]
